# Measurements from patent US20220112208A1, “COMPOUNDS WITH ANTIINFLAMMATORY ACTIVITY AND METHODS OF USE THEREOF” (King Abdullah University of Science and Technology, priority 2020, published 2022).
# Where two headings read alike, the source gives them in different places.
# Experiments:
# [1] = system: NO production in LPS-treated RAW 264.7 cells; assay: Inhibition of NO production (Griess reaction) in LPS-treated RAW 264.7 macrophages; assay type: cell-based, mouse
# Procedure: (§1) Mouse macrophage cell line RAW 264.7 was cultured in DMEM medium (cat. #21885-025, Gibco) supplemented with 10% heat inactivated fetal bovine serum (cat. #10270-106, Gibco) and 1% penicillin-streptomycin (cat. #15070-063, Gibco). Cells were cultured in 37° C. and 5% CO2. Each compound was diluted in Carbowax™ 400+10% ethanol (cat. #1.00983, Sigma), used also as control solvent. Final concentration in culture was 0.1% v/v carbowax and 0.01% v/v ethanol. RAW 264.7 macrophages were activated using 100 ng/mL lipopolysaccharide (LPS) (L2630, Sigma). In IC50 determination experiments, macrophages were pre-treated for 1 h with the respective compound prior to LPS stimulation.
# 30×104 RAW 264.7 mouse macrophages were plated in 24-well plates over-night with 0.5 mL complete medium. Cells were pretreated for 1 h with the respected compound concentration and then stimulated with 100 ng/mL LPS (L2630, Sigma) for 48 h. The amount of nitrite, an oxidative product of NO, was measured in culture supernatant of each sample using the Griess reaction. 100 μL of supernatant was mixed with 100 μl of sulfanilamide solution (1% sulfanilamide in 5% H3PO4) and incubated for 5 min at room temperature. Then, 100 μL of NED solution (0.1% N-1-naphtylethylenediamine dihydrochlorite in H2O) was added and the absorbance was measured in an automated microplate reader (Infinate 200 PRO, Tecan) at 540 nm. Nitrite concentration was calculated using a sodium nitrite standard curve. All incubations were performed in the dark.
# (§2) All data are presented as mean±SEM and as percentage in case of IC50 evaluation. Statistical analysis was performed using Graphpad Prism 7.0. D'Agostino & Pearson, Shapiro Wilk and KS tests were used to evaluate normality. In case of normality, one-way ANOVA was performed, whereas in all other cases the non-parametric Kruskal-Wallis test was used. Differences with a P value <0.05 are considered significant (*indicates P<0.05, **indicates P<0.01, ***indicates P<0.001).
# RAW 264.7 macrophages = assay: MTT cytotoxicity / proliferation assay in RAW 264.7 macrophages; assay type: cell-based, mouse; settings: for Significant cytotoxicity at concentrations above: RAW 264.7, values given in nM
# Procedure: as §1
# 3.5×103 RAW 264.7 mouse macrophages were seeded in 96-well plate and cultured overnight. Cells were subsequently treated with the respective compound concentration and incubated for 24, 48 and 72 h. Number of cells was measured prior to treatment and used as normalisation control. Thiazolyl Blue Tetrazolium Bromide (MTT) (A2231.001, Applichem) was added to the cells in a final concentration of 0.5 mg/mL and then cells were incubated at 37° C. and 5% CO2 for 4 h. The supernatant was discarded and cells were lysed with 2-propanol (33539, Honeywell) with 0.4% HCl (30721, Sigma). The absorbance of each sample was measured in an automated microplate reader (Infinite 200 PRO, Tecan) at 600 nm. The average OD of each treated sample was normalized to the OD of the control sample and statistical analysis was performed using Graphpad Prism 7.0.
# as §2
# [2] = Mus musculus, RAW264.7, LPS (100 ng/mL)-treated RAW 264.7, 1 h pre-treatment, 48 h, vs Carbowax 400 control, mean ± SEM, read-out: IC50 Inhibition of NO production
# [3] = Mus musculus, RAW264.7, LPS-treated RAW 264.7, values given in nM, read-out: IC50 for inhibition of NO production (anti-inflammatory activity)
# [4] = MTT, RAW 264.7, 72 h of treatment, concentration above which cytotoxic
Structure (SMILES),"IC50 [1, 2] [nM]","IC50 [1, 3] [nM]",Cytotoxicity (at 72 h) (RAW 264.7 macrophages; [4]) [µM],Significant cytotoxicity at concentrations above (RAW 264.7 macrophages; MTT),further results
"CC[C@@H]1O[C@@H]2C[C@H]3O[C@H]3C[C@H](C=C=CBr)O[C@@H]2C[C@H]1Br [Compound a1, Thuwalallene A]",,,,,"IC50 ([1]; LPS (100 ng/mL)-treated RAW 264.7, 1 h pre-treatment, 48 h, vs Carbowax 400 control, mean ± SEM, read-out: IC50 Inhibition of NO production): 26000 nM"
"CC[C@@H]1O[C@@H]2C/C=C\C[C@H](C=C=CBr)O[C@@H]2CC1Br (stereo partly shown) [Compound a3, Thuwalallene C]",4180,,,,
"C#C/C=C\C[C@@H]1O[C@@H]2C[C@@H](Br)[C@H](CC)O[C@@H]2C[C@@H]1Br [Compound a4, Thuwalenyne A]",,,,,"Anti-inflammatory activity (in words) ([1]; LPS-treated RAW 264.7, all concentrations tested): did not exhibit anti-inflammatory activity; Cytotoxicity (in words) (RAW 264.7 macrophages): did not exhibit anti-inflammatory activity or cytotoxicity; Cytotoxicity (at 72 h) (RAW 264.7 macrophages; mouse, 72 h): >62.5 µM"
"CC(C)(O)C1CC[C@](C)([C@@H](O)CC[C@](C)(O)[C@H]2CC[C@H]3O[C@@H]([C@]4(C)CC[C@@H](Br)C(C)(C)O4)CC[C@]3(C)O2)O1 (stereo partly shown) [Compound a10, thyrsiferol]",4.39,4.39,>0.1,above 100 nM,
"CC(=O)OC(C)(C)C1CC[C@](C)([C@@H](O)CC[C@](C)(O)[C@H]2CC[C@H]3O[C@@H]([C@]4(C)CC[C@@H](Br)C(C)(C)O4)CC[C@]3(C)O2)O1 (stereo partly shown) [a11, 23-acetyl-thyrsiferol]",2.63,2.63,>0.01,above 10 nM,
